Experiment [1] can be described thus: Inhibition of Glycosidase (unknown origin). The arrangement: species or system Homo sapiens.
Experiment [2] has as its target T1, Lysosomal alpha-glucosidase (Homo sapiens, UniProt P10253). Put plainly: Inhibition of human GAA using 4-methylumbelliferyl-alpha-D-glucopyranoside as substrate preincubated for 45 min followed by substrate addition and measured after 30 min by fluorescence spectrophotometer analysis.
Experiment [3] can be described thus: Inhibition of Penicillium decumbens Alpha-L-rhamnosidase.
The target in experiment [4] is T1, Lysosomal alpha-glucosidase. The following applies: dose 10.0 µM.
Description: Stabilization of recombinant human GAA using 4-methylumbelliferyl-alpha-D-glucopyranoside as substrate assessed as relative fluorescence intensity by measuring midpoint temperature protein denaturation at 10 uM by thermal shift assay (Rvb = 58.6 degC)
Experiment [5] in a line: Inhibition of Maltase (unknown origin). Also on record: species or system Homo sapiens.
Experiment [6] is described as follows: Inhibition of Lysosomal alpha-glucosidase in Aspergillus niger.
Experiment [7] can be described thus: Inhibition of rat intestinal maltase.
Experiment [8] concerns the target Sucrase-isomaltase, intestinal (Homo sapiens, UniProt P14410). The experiment can be described thus: Inhibition of Sucrase (unknown origin).
Experiment [9] can be described thus: Inhibition of Endoplasmic reticulum alpha-glucosidase (unknown origin). Also on record: species or system Homo sapiens.

The IC50 is the concentration at which inhibition is half-maximal. Low values mean greater potency in that assay, high ones weaker potency in that assay. Usually Ki stands for a measure of affinity in units of concentration, obtained from inhibition or displacement. Higher therefore signals lower affinity.

Sequence of Sucrase-isomaltase, intestinal (P14410 2-1007 limits assumed): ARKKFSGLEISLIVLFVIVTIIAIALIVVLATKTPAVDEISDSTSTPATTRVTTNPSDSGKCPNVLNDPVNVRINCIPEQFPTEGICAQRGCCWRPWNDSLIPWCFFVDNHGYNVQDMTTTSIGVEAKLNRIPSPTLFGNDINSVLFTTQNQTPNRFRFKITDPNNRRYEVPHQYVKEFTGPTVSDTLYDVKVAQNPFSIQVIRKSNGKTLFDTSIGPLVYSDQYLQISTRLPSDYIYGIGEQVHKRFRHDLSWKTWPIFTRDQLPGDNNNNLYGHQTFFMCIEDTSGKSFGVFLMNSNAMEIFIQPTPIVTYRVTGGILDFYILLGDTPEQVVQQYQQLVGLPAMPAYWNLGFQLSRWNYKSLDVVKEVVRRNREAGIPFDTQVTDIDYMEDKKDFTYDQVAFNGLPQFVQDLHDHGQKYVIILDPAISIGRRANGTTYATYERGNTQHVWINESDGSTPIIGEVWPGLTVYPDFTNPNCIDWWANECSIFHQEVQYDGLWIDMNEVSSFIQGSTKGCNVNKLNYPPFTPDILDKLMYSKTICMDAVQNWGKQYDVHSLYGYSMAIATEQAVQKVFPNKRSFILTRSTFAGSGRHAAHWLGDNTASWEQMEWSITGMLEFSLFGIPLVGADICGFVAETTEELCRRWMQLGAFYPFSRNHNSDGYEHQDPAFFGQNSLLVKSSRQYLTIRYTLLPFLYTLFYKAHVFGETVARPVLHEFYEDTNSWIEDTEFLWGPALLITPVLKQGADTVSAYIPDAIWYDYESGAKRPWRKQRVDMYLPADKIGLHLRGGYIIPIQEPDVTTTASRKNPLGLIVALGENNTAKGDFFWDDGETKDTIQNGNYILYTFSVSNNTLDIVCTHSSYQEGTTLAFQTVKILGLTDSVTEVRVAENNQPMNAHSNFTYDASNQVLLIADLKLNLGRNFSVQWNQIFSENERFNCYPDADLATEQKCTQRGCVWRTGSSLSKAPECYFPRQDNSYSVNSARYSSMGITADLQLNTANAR
Sequence of Sucrase-isomaltase, intestinal (P14410 1008-1827 limits assumed): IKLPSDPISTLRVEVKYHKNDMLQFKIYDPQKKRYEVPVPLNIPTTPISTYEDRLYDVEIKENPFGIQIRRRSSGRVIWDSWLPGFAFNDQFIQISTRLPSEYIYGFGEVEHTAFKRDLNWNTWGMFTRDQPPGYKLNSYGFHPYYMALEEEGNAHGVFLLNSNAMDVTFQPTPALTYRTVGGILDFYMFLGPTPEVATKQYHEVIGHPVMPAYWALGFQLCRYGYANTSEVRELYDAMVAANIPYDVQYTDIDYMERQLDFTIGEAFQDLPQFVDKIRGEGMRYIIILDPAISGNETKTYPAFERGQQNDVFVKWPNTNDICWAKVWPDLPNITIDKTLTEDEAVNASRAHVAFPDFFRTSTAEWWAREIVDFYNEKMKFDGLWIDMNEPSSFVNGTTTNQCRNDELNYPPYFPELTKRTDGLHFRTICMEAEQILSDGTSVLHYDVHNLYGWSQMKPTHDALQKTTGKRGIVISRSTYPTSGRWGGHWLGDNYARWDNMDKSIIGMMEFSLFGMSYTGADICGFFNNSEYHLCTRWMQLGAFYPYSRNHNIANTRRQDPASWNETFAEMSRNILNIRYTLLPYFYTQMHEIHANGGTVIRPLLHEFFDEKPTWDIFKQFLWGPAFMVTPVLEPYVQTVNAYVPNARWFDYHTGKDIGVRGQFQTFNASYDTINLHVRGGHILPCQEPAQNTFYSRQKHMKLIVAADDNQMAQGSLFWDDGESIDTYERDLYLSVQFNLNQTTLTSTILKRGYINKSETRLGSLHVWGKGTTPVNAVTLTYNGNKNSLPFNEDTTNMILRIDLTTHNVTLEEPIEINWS

`C[C@@]1(O)CN[C@H](CO)[C@@H]1O`: the IC50 in experiment [1] was determined as 12000 nM.

In experiment [2], `CCN1C[C@H](O)[C@@H](O)[C@H](O)[C@H]1CO` returned a Ki of 210 nM. That is a sub-micromolar value.

For the compound `CCCCN1C[C@H](O)[C@@H](O)[C@H](O)[C@H]1CO`, the Ki in experiment [2] came to 200 nM.

Take `O[C@@H]1[C@@H]2[C@@H](O)[C@H](O)[C@@H](O)CN2C[C@@H]1O`: the IC50 in experiment [3] stood at 530000 nM.

For the compound `C[C@]1(CO)NC[C@H](O)[C@@H](O)[C@@H]1O`, inhibition in experiment [1] was half-maximal at 1000 nM (IC50). In addition, the Ki in experiment [2] came to 37000 nM. The Tm in experiment [4] was found to be 69.5 °C.

`C[C@@H]1NC[C@@H](O)[C@H](O)[C@]1(C)O` displayed an IC50 in experiment [1] of 50000 nM. In other words, the double-digit micromolar range.

`CCCCCCN1C[C@H](O)[C@@H](O)[C@H](O)[C@H]1CO` yielded a Ki in experiment [2] of 130 nM.

Compound `CCCCCCC[C@@]1(CO)NC[C@H](O)[C@@H](O)[C@@H]1O` displayed a Ki in experiment [2] of 2500 nM.

In the case of `CCCCCN1C[C@H](O)[C@@H](O)[C@H](O)[C@H]1CO`, in experiment [2], the affinity, expressed as Ki, was 210 nM.

Take `CCCCC[C@]1(CO)NC[C@H](O)[C@@H](O)[C@@H]1O`: the Ki in experiment [2] was determined as 19 nM.

In experiment [5], `OC[C@H]1NC[C@@H](O)[C@@H]1O` yielded an IC50 of 55000 nM.

Take `CCCCCCCN1C[C@H](O)[C@@H](O)[C@H](O)[C@H]1CO`: the Ki in [2] was 95 nM.

In [6], `OC[C@H]1NC[C@@H](O)[C@H]1O` registered an IC50 of 190 nM.

In the case of `C[C@]1(CO)NC[C@@H](O)[C@@H]1O`, in experiment [7], the half-maximal inhibitory concentration (IC50) is 740 nM.

In the case of `CCCN1C[C@H](O)[C@@H](O)[C@H](O)[C@H]1CO`, the Ki in [2] stood at 360 nM.

In the case of `CCCCCC[C@]1(CO)NC[C@H](O)[C@@H](O)[C@@H]1O`, affinity in experiment [2] was put at a Ki of 6.1 nM.

In turn, `C[C@@]1(O)[C@H](O)CN[C@@H]1CO` returned an IC50 in experiment [1] of 800 nM.

As for `C[C@]1(O)CN2C[C@H](O)[C@H](O)[C@@H]2[C@@H](O)[C@@H]1O`, in experiment [1], half-maximal inhibition (IC50) was put at 200 nM.

For `CCCC[C@]1(CO)NC[C@H](O)[C@@H](O)[C@@H]1O`, the Ki in [2] was 37 nM. Moreover, the Tm in experiment [4] stood at 70.2 °C.

`CCCCCCC[C@]1(CO)NC[C@H](O)[C@@H](O)[C@@H]1O` registered a Ki in [2] of 4.7 nM. In other words, the single-digit nanomolar range.

`OC[C@@H]1NC[C@H](O)[C@H]1O` returned a half-inhibitory concentration (IC50) in experiment [8] of 1000 nM. In other words, the single-digit micromolar range.

For `CCC[C@]1(CO)NC[C@H](O)[C@@H](O)[C@@H]1O`, the inhibition constant (Ki) in experiment [2] is 59 nM.

`OC[C@H]1NC[C@H](O)[C@@H](O)[C@@H]1O` [DUVOGLUSTAT] returned an IC50 in [9] of 1400 nM.

In turn, `CC[C@]1(CO)NC[C@H](O)[C@@H](O)[C@@H]1O` had an inhibition constant Ki in experiment [2] of 6000 nM.
